Source: ChEMBL document CHEMBL5465560, “Selectivity Literature for EUbOPEN Chemogenomic Library” (2024)

Columns and labels:
[1] = target: Phosphatidylinositol 4,5-bisphosphate 3-kinase catalytic subunit beta isoform (Homo sapiens) (UniProt P42338); assay: Selectivity interaction (KinomeScan (DiscoverX)) EUB0000229b PIK3CB; conditions: at 10 µM
[2] = system: Mast/stem cell growth factor receptor Kit (Homo sapiens), P10721 [D816H]; assay: (§1) Selectivity interaction (KinomeScan (DiscoverX)) EUB0001079a KIT; conditions: at 1 µM
[3] = system: Mast/stem cell growth factor receptor Kit (Homo sapiens), P10721 [D816V]; assay: as §1; conditions: at 1 µM
[4] = system: Mast/stem cell growth factor receptor Kit (Homo sapiens), P10721 [L576P]; assay: as §1; conditions: at 1 µM
[5] = target: Mast/stem cell growth factor receptor Kit (Homo sapiens, UniProt P10721); assay: as §1; conditions: at 1 µM
[6] = system: Mast/stem cell growth factor receptor Kit (Homo sapiens), P10721 [A829P]; assay: as §1; conditions: at 1 µM
Chain of Mast/stem cell growth factor receptor Kit (Homo sapiens), P10721 [A829P] (P10721 whole entry A829P): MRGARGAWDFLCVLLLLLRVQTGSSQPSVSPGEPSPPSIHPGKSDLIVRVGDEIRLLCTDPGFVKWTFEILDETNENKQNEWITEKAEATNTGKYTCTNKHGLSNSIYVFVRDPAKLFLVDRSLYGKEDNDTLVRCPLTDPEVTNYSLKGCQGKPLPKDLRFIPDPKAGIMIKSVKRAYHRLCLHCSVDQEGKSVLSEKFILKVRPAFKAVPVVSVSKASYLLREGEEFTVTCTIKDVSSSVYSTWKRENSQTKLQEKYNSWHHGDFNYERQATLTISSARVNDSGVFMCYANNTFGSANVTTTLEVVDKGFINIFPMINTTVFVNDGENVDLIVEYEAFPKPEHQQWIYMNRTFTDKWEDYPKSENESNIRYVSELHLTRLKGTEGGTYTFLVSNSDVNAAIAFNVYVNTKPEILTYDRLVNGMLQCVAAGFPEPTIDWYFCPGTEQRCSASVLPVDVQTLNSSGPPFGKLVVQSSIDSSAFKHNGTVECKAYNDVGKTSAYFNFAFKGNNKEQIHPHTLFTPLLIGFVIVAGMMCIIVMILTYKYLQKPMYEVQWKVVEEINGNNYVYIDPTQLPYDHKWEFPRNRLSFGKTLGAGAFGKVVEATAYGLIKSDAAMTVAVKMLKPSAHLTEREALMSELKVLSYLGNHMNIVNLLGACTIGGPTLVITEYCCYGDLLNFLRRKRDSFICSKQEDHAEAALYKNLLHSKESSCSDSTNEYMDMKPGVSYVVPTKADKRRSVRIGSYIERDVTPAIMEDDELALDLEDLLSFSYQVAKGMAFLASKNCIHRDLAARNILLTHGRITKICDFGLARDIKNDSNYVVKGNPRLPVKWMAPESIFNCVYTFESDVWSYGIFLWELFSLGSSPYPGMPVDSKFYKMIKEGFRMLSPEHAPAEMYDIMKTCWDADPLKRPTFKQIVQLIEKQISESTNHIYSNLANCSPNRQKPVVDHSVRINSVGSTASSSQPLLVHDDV

[7] = system: Mast/stem cell growth factor receptor Kit (Homo sapiens), P10721 [V559D,T670I]; assay: as §1; conditions: at 1 µM
Chain of Mast/stem cell growth factor receptor Kit (Homo sapiens), P10721 [V559D,T670I] (P10721 whole entry V559D/T670I): as the sequence (P10721 whole entry A829P) above, with V559D, T670I, P829A counted along it

[8] = system: Mast/stem cell growth factor receptor Kit (Homo sapiens), P10721 [V559D]; assay: as §1; conditions: at 1 µM
[9] = system: Mast/stem cell growth factor receptor Kit (Homo sapiens), P10721 [V559D,V654A]; assay: as §1; conditions: at 1 µM
[10] = target: Casein kinase I isoform gamma-2 (Homo sapiens) (UniProt P78368); assay: Selectivity interaction (KinomeScan (DiscoverX)) EUB0001079a CSNK1G2; conditions: at 1 µM
Chain of Casein kinase I isoform gamma-2 (Homo sapiens) (P78368 whole entry, looked up, canonical isoform): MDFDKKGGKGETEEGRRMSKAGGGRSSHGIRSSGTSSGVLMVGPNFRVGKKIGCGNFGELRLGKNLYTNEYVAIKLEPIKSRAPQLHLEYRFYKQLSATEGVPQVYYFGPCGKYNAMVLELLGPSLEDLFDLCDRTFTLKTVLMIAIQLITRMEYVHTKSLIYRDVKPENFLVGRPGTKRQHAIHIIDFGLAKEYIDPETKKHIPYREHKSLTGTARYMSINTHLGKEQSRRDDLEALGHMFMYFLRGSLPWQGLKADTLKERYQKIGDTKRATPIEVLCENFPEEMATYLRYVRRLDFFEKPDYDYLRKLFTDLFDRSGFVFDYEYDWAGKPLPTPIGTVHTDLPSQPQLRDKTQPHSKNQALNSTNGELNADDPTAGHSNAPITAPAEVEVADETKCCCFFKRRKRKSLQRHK

[11] = target: Bromodomain-containing protein 2 (Homo sapiens) (UniProt P25440); assay: Selectivity interaction (Bromodomain panel (DSF asssay)) EUB0000270b BRD2
Chain of Bromodomain-containing protein 2 (Homo sapiens) (P25440 whole entry, looked up): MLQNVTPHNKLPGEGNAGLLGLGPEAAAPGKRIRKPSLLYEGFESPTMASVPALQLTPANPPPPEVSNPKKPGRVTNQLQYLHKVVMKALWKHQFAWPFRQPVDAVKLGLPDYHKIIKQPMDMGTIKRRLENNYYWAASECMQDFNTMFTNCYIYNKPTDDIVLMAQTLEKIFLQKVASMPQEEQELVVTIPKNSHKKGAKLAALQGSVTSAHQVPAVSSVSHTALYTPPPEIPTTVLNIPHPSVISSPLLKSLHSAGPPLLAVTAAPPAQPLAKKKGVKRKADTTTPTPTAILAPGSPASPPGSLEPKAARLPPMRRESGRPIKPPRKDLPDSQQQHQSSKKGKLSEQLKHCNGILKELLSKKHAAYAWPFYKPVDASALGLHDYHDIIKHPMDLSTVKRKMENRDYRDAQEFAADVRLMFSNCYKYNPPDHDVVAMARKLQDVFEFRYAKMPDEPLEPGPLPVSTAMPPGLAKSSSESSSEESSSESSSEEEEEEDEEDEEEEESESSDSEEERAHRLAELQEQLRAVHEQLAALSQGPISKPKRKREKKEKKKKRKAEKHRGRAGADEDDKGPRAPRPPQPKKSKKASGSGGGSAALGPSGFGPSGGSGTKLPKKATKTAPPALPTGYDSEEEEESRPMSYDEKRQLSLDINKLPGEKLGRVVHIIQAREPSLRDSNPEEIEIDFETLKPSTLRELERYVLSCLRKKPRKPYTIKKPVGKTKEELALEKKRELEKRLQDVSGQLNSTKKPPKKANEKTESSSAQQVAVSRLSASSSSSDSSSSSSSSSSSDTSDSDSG

[12] = target: Acetylcholine receptor subunit alpha (Homo sapiens, UniProt P02708); assay: Selectivity interaction (Panel of kinases, GPCRs, ion channels and transporters (enzymatic assay)) EUB0000223bCl CHRNA1
Chain of Acetylcholine receptor subunit alpha (P02708 whole entry): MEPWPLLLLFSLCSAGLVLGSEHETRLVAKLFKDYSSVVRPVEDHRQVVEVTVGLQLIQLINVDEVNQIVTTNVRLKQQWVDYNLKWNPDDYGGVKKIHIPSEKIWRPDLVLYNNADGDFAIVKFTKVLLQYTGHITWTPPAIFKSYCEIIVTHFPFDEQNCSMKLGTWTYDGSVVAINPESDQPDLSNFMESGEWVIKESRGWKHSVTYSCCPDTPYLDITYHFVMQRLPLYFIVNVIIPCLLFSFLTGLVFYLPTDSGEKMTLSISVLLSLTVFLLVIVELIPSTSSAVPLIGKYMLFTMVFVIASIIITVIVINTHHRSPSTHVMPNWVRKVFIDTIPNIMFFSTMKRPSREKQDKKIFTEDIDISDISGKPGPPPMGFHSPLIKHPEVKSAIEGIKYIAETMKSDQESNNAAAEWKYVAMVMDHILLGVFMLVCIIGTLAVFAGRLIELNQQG

[13] = target: T1, Protein kinase C iota type (Homo sapiens) (UniProt P41743); assay: Selectivity interaction (SelectScreen profiling (Invitrogen)) EUB0000607a PRKCI; conditions: at 2 µM
T1 sequence (whole entry): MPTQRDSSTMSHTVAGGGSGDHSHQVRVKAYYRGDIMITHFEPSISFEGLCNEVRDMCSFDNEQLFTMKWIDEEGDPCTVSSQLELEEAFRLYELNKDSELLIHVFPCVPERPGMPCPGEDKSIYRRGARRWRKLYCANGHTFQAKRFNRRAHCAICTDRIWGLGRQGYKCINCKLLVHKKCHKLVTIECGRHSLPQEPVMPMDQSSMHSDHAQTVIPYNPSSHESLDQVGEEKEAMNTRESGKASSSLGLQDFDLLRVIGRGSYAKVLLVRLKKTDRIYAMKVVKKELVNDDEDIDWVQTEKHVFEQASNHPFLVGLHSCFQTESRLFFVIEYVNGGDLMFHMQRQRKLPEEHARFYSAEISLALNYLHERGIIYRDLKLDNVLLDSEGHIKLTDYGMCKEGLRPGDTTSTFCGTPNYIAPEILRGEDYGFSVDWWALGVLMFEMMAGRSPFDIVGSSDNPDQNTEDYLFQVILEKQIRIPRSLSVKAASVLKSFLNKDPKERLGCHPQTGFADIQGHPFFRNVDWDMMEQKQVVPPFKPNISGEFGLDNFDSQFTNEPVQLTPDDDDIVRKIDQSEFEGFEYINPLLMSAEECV

[14] = target: RAC-beta serine/threonine-protein kinase (Homo sapiens) (UniProt P31751); assay: Selectivity interaction (SelectScreen profiling (Invitrogen)) EUB0000607a AKT2; conditions: at 2 µM
[15] = target: Cyclin-dependent kinase 2 (Homo sapiens, UniProt P24941); assay: Selectivity interaction (KinomeScan (DiscoverX)) EUB0000595a CDK2; conditions: at 10 µM
[16] = target: T2, Serine/threonine-protein kinase Sgk3 (Homo sapiens) (UniProt Q96BR1); assay: Selectivity interaction (KinomeScan (DiscoverX)) EUB0000595a SGK3; conditions: at 10 µM
T2 sequence (whole entry): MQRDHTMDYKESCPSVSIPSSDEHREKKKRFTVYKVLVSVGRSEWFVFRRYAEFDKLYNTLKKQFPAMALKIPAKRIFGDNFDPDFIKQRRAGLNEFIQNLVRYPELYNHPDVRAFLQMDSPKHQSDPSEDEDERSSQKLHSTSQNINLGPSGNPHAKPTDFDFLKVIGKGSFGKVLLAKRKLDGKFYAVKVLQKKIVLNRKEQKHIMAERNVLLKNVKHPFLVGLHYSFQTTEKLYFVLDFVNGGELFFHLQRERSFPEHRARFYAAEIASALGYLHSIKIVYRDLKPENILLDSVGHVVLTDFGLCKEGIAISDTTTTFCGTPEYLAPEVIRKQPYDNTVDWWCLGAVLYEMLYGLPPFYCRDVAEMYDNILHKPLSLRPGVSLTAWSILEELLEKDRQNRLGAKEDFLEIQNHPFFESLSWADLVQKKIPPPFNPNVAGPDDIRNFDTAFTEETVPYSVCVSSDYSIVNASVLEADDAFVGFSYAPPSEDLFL

[17] = target: T3, Serine/threonine-protein kinase DCLK1 (Homo sapiens) (UniProt O15075); assay: Selectivity interaction (KinomeScan (DiscoverX)) EUB0000595a DCLK1; conditions: at 10 µM
T3 sequence (whole entry): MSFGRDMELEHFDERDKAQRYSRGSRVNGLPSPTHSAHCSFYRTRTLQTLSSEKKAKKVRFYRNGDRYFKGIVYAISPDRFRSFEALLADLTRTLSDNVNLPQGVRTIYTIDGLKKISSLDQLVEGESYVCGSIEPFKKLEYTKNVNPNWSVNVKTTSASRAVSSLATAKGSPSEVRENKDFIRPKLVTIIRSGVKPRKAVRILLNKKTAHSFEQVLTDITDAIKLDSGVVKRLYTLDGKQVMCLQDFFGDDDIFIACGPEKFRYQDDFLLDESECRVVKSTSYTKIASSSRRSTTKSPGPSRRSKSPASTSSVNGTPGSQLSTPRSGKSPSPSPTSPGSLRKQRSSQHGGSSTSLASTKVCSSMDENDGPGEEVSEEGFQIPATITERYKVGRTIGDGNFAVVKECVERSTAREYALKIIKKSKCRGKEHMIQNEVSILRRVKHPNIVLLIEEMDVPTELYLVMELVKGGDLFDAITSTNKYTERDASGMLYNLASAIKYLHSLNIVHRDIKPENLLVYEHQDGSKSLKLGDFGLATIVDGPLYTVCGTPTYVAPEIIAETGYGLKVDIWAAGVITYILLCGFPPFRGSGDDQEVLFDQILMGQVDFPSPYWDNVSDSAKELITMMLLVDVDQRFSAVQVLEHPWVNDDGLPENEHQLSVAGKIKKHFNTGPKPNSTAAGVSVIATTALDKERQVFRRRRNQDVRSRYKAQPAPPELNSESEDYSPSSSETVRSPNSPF

[18] = target: Macrophage-stimulating protein receptor (Homo sapiens, UniProt Q04912); assay: Selectivity interaction (Kinase screening (Nanosyn)) EUB0000604a MST1R

Chain of Phosphatidylinositol 4,5-bisphosphate 3-kinase catalytic subunit beta isoform (Homo sapiens) (P42338 whole entry, looked up, canonical isoform): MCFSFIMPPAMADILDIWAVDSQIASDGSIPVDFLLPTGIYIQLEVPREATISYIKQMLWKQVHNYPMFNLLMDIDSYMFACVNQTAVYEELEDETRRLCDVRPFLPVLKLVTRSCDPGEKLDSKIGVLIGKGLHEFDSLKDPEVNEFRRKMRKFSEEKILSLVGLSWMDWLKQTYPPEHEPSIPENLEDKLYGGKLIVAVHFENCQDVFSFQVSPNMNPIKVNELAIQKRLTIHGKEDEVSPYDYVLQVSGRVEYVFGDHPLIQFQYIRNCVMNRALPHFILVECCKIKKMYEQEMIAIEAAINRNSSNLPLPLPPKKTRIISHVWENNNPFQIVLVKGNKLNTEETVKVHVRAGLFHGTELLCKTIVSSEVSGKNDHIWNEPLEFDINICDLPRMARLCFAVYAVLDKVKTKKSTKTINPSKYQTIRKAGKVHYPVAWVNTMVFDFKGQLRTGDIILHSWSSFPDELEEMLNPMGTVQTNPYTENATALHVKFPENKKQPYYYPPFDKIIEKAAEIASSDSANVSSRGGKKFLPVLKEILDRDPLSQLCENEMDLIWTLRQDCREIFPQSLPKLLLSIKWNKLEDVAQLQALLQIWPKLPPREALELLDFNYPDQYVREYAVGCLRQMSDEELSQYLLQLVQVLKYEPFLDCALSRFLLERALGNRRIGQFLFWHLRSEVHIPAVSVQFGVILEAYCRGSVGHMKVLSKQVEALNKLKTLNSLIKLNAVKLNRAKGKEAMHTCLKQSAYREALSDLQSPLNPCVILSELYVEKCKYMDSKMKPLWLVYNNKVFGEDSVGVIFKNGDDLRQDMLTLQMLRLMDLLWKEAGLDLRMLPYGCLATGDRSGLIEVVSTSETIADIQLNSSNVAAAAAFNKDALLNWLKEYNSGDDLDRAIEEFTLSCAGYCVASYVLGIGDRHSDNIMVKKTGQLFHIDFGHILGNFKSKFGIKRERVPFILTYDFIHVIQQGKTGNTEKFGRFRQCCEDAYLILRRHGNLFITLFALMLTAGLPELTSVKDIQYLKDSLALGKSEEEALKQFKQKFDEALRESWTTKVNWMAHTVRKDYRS

COc1cc(N(C)c2ccnc3ccc(C(F)(F)F)cc23)cc(OC)c1OC
% binding [1]: 63%

Nc1cnc(N2CCc3cc(S(=O)(=O)Nc4c(F)cc(Cl)cc4F)cc(N4CCCC4=O)c32)nc1 [TP-020n]
% of control [2]: 100%
% of control [3]: 100%
% of control [4]: 83%
% of control [5]: 100%
% of control [6]: 100%
% of control [7]: 100%
% of control [8]: 100%
% of control [9]: 100%
% of control [10]: 88%

Cc1cc(CN)cc(C)c1-c1ncn(C)c1-c1cncn1C
dTM [11]: -1.94 K

COc1cc(C(=O)N2CC[C@@H](O)[C@@H](N)C2)cc2nc(-c3cc4ccccc4n3CC3CC3)n(C)c12
pXC50 [12]: < 4.3 M

CNC(=O)Nc1ccc(-c2nc(N3CC4CCC(C3)O4)c3cnn(C4CCC5(CC4)OCCO5)c3n2)cc1
% of inhibition [13]: 6%
% of inhibition [14]: 5%

COCC(=O)NC/C=C/c1ccc2ncnc(Nc3ccc(Oc4ccc(C)nc4)c(C)c3)c2c1 [CP-724714]
% of control [15]: 92%
% of control [16]: 100%
% of control [17]: 100%

Cc1cnc(Nc2ccc(F)cc2Cl)nc1-c1c[nH]c(C(=O)N[C@H](CO)c2cccc(Cl)c2)c1
% of inhibition [18]: 1%
